Source: article PMC5294416, “Novel peptides for deciphering structural and signalling functions of E-cadherin in mouse embryonic stem cells” (Scientific Reports, 2017)
“Also recorded” adds a separate entry of the source.

Key:
[1] = target: T1, recombinant mouse E-Cadherin Fc Chimera (Mus musculus, UniProt P09803); experiment: Biacore SPR equilibrium binding analysis (affinity capture)
T1 construct: purchased R&D Systems
Method: Biacore SPR analysis was used to measure the interaction between peptides and recombinant mouse E-Cadherin Fc Chimera (R&D Systems). Analytes were passed over an HTE chip with surface bound His-tagged Recombinant Mouse E-Cadherin Fc Chimera (R&D Systems). The kinetics of interaction, i.e. the rates of complex formation (ka) and dissociation (kd), were determined and Integrin α4β7 protein was used as a control. Analysis was performed by the Biomolecular Analysis Core Facility (The University of Manchester, UK) on a Proteon XPR-36 protein interaction array system (Bio-Rad) using a HTE chip for high capacity His-tagged protein capture (Bio-Rad). Equilibrium analysis runs were performed three times and an average KD was calculated. Running buffer: HBS/0.02%, Tween/2 mM, CaCl2/1 mM MgCl2.

wtD3 mESCs [2] = experiment: Loss of cell-cell contact, phase contrast microscopy; format: cell-based, mouse
Method: (§1) Unless otherwise stated, mESC lines were grown on gelatinised tissue culture grade 6-well plates at 37 °C/5% CO2, as previously described. mESCs cells were treated with 10 μM peptide in mESC culture medium which was replenished every 24 h. Inhibition of specific pathways in mESCs was achieved by incubation with 10 μM LY294002 (PI3K inhibitor), PD9805 (MEK inhibitor) and SB431542 (TGFβ1 R inhibitor).

[3] = system: STAT3 phosphorylation in wtD3 mESCs; experiment: Western blot analysis of phosphorylated STAT3; format: cell-based, mouse
Method: as §1
(§2) Cells were harvested using cell dissociation buffer, centrifuged and washed with PBS prior to lysis using Radioimmunoprecipitation (RIPA) buffer (Sigma) containing protease inhibitor cocktail tablets (1 tablet per 10 ml RIPA buffer) (Roche Applied Science) at a concentration of 2 × 10^7 cell/ml. Lysates were separated by SDS-PAGE and electrotransferred onto nitrocellulose membrane as previously described. The membrane was probed using the appropriate primary antibody with subsequent incubation with HRP-conjugated secondary antibody. The membrane was exposed to an autoradiographic film (Hyperfilm ECL, GE Healthcare, Amersham, UK) for the appropriate time period in an X-ray cassette before the film was manually developed in a dark room using Kodak GBX developer and fixer solutions (Sigma, Dorset, UK). Primary antibodies: anti-α-tubulin, 1:2000 dilution (T9026, Sigma, Dorset, UK); anti-AKT, 1:200 dilution (#9272, Cell Signalling Technology, MA, USA); anti-pAKT (Ser473), 1:200 (#4060S, Cell Signalling Technology, MA, USA); anti-STAT3, 1:200 dilution (SC-482, Santa Cruz Biotechnology Inc, TX, USA); anti-pSTAT3, 1:200 dilution (#9138S, Cell Signalling Technology, MA, USA).

[4] = system: Nanog, Klf4, Tbx3, Esrrb, Nr0b1, Nr5a2 and Tet1 transcripts in wtD3 mESCs; experiment: qPCR analysis of pluripotency transcript expression; format: cell-based, mouse
Method: as §1
Primers for qPCR were designed using the Roche Applied science Universal Probe Library software and BLAST screened for sequence specificity. Only primers producing a single dissociation peak were used. RNA was extracted from mESCs and cDNA at a concentration of 2 ng/μl was used for analysis in a MicroAmp Optical 96-well Reaction Plate (Applied Biosystems) using SYBR green Jumpstart Taq ReadyMix (Applied Biosystems). Primer sequences: 18srRNA Forward (F) […], Reverse (R) […]; ESRRB F-[…], R-[…]; KLF4 F-[…], R-ATGTCCGCCAGGTTGAAG; NANOG F-[…], R-[…]; NR0B1 F-[…], R-[…]; NR5A2 F-[…], R-[…]; TBX3 F-[…], R-[…]; TET1 F-[…], R-[…].

[5] = system: NANOG protein in wtD3 mESCs; experiment: Immunofluorescence microscopy analysis of NANOG protein expression; format: cell-based, mouse; conditions: 96 h / 4 days where stated
Method: Monolayer cultured mESCs were fixed in situ in 4% w/v PFA in PBS for 30 minutes at room temperature, washed twice with PBS and blocked with 1% goat serum in 0.1% w/v BSA, 0.1% Triton X-100 in PBS for 30 minutes. Cells were incubated in the appropriate primary antibody in goat blocking buffer for two hours at RT. Cells were washed three times in PBS and incubated in the appropriate Alexa fluor-488 or −546 conjugated secondary antibody at RT for 1 hour in the dark. Cells were washed three times with PBS, mounted in 4′6-diamidino-2-phenylindole (DAPI) (Vector Laboratories) and visualized using a Leica DM6000B fluorescence microscope (Leica Microsystems) and processed using Leica LAS X Core software (Leica Microsystems). Primary antibodies: anti-Nanog, 1:200 dilution (ab80892, Abcam Plc, Cambridge, UK); anti-Oct4, 1:200 dilution (ab19857, Abcam Plc, Cambridge, UK). […] Cells were visualized using a Leica DM6000B fluorescence microscope (Leica Microsystems) and processed using Leica LAS X Core software (Leica Microsystems).
(§3) Images were imported into ImageJ and fluorescence intensity measured using the Analyse > Measure function on areas selected using the rectangular or oval selection icons.

[6] = system: OCT4 protein in wtD3 mESCs; experiment: Immunofluorescence microscopy analysis of OCT4 protein expression with pathway inhibitors; format: cell-based, mouse
Method: as §1
Monolayer cultured mESCs were fixed in situ in 4% w/v PFA in PBS for 30 minutes at room temperature, washed twice with PBS and blocked with 1% goat serum in 0.1% w/v BSA, 0.1% Triton X-100 in PBS for 30 minutes. Cells were incubated in the appropriate primary antibody in goat blocking buffer for two hours at RT. Cells were washed three times in PBS and incubated in the appropriate Alexa fluor-488 or −546 conjugated secondary antibody at RT for 1 hour in the dark. Cells were washed three times with PBS, mounted in 4′6-diamidino-2-phenylindole (DAPI) (Vector Laboratories) and visualized using a Leica DM6000B fluorescence microscope (Leica Microsystems) and processed using Leica LAS X Core software (Leica Microsystems). Primary antibodies: anti-Nanog, 1:200 dilution (ab80892, Abcam Plc, Cambridge, UK); anti-Oct4, 1:200 dilution (ab19857, Abcam Plc, Cambridge, UK). For immunofluorescence microscopy analysis of fluorescent-tagged peptides, cells were incubated in 500 μM peptide in cell culture medium for 15 minutes, washed twice in ice cold PBS and mounted with Vectorshield containing DAPI. Cells were visualized using a Leica DM6000B fluorescence microscope (Leica Microsystems) and processed using Leica LAS X Core software (Leica Microsystems).
as §3

pERK1/2 in wtD3 mESCs = experiment: Western blot analysis of phosphorylated ERK1/2; format: cell-based, mouse
mESCs = experiment: Cell viability in monolayer culture; format: cell-based, mouse; conditions: data not shown
[7] = system: Akt phosphorylation in mESCs; experiment: Akt phosphorylation in treated mESCs; format: cell-based, mouse; conditions: data not shown
Method: as §2

MCF-7 = MCF-7 cell line; cited from earlier work
Excerpt: (§4) E-cadherin provides an attractive target to manipulate ESCs in culture since cell signalling mediated through this protein has significant effects on both ESC pluripotent states and survival. We have previously shown that abrogation of E-cadherin-mediated cellular aggregation allows culture of mESCs in shake flask bioreactors whilst retaining pluripotency, either through gene knockout or an inhibitory antibody DECMA-1[16]. However, utilisation of E-cadherin neutralising Abs for ESC culture is expensive and more cost-effective E-cadherin inhibitors are required before this technique becomes com ...

[8] = system: STAT3 phosphorylation in wtD3 mESCs; conditions: mESC; cited from earlier work
Excerpt: as §4

wtD3 mESCs [9] = conditions: mESC cell line; cited from earlier work
Excerpt: as §4

[10] = transcript, mESCs, Fig. 6a summary

## H-SWELYYPLRANL-NH2 [Epep, H-SWELYYPLRANL-NH2]
[1]; equilibrium analysis using affinity capture on HTE chip, peptide stock in water, average of three runs, running buffer HBS/0.02% Tween/2 mM CaCl2/1 mM MgCl2
  Kd: 3.4 µM
[1]; peptide dissolved in 10%v/v DMSO/H2O, equilibrium analysis using affinity capture
  Kd: 1.15 µM
wtD3 mESCs [2]; mESCs, 10 μM, Fig. 6a summary
  Loss of cell-cell contact (10μM)?: YES
wtD3 mESCs [2]; wtD3 mESCs, 10 μM peptide, 24 h, phase contrast
  Effect on cell-cell contact (in words): loss of cell-cell contact after 24 h; also recorded: loss of cell-cell contact within 24 h
wtD3 mESCs [2]; wtD3 mESCs, 24 h post-removal of treatment
  Cell-cell contact after removal of the inhibitor: restoration of cell-cell contact; also recorded: reversible
[3]; mESCs, Fig. 6a summary
  Loss of pStat3: YES
[3]; wtD3 mESCs vs control treated cells, western blot
  Effect on STAT3 phosphorylation (in words): decreased STAT3 phosphorylation within 24 h; also recorded: significantly decreased phosphorylation of STAT3
[4]; mESCs, 24 h post-removal
  Transcripts restored to control levels after removal of inhibitor: Nanog, Esrrb, Tbx3 and Tet1
[4]; [10]
  Loss of ESRRB: YES
  Loss of Klf4: YES
  Loss of Nanog: YES
  Loss of Nr0b1: YES
  Loss of Nr5a2: YES
  Loss of TBX3: YES
[4]; wtD3 mESCs, 10 μM peptide, 24 h
  Transcripts with decreased expression compared to control (qPCR): Nanog, Klf4, Tbx3, Esrrb, Nr0b1, Nr5a2 and Tet1
[4]; wtD3 mESCs, 24 h following removal
  Transcripts remaining significantly decreased after removal of inhibitor: Klf4, Nr0b1 and Nr5a2
[5]
  NANOG protein expression: decreased NANOG protein expression
[6]; peptide-treated wtD3 mESCs plus Activin/Nodal inhibitor SB431542, after 5 days
  OCT4 protein expression in the presence of SB431542: maintained expression of OCT4 protein
[6]; peptide-treated wtD3 mESCs plus FGFR1 inhibitor SU5402, after 5 days
  OCT4 protein expression in the presence of SU5402: maintained expression of OCT4 protein
pERK1/2 in wtD3 mESCs
  pERK1/2 compared to untreated mESCs: decreased pERK1/2
mESCs
  cell viability in monolayer culture: no significant difference in cell viability
[7]
  Akt phosphorylation: no changes in Akt phosphorylation
MCF-7
  inhibition of E-cadherin mediated cell-cell contact: inhibit E-cadherin mediated cell-cell contact
[8]
  phosphorylation of STAT3: abrogate phosphorylation of STAT3
wtD3 mESCs [9]
  inhibition of E-cadherin mediated cell-cell contact: inhibit E-cadherin mediated cell-cell contact
